# Where two headings read alike, the source gives them in different places. [OPent] = 2'-O-pentyl ribonucleoside; [OPr] = 2'-O-propyl ribonucleoside; d = 2'-deoxy (DNA)
# Legend:
# PKC-α mRNA = assay: Northern blot analysis of PKC-α mRNA levels; type: cell-based, human; conditions: result in words
# Protocol: Oligonucleotides having SEQ ID NO:4 were synthesized as uniformly phosphorothioate chimeric oligonucleotides having a centered deoxy gap of varying lengths flanked by 2′-O-methylated regions. These oligonucleotides (500 nM concentration) were tested for effects on PKC-A mRNA levels by Northern blot analysis.
# Additional phosphorothioate oligonucleotides targeted to the human PKC-α 3′ untranslated region were designed and synthesized.
# [1] = test system: complementary RNA strand (the sense strand); assay: Thermal melting analysis of 2′-deoxy-2′-fluoro modified oligonucleotides (hybridization thermodynamics); type: binding
# ras mRNA = assay: Northern blot analysis of ras expression in T24 cells; type: cell-based, human
# Protocol: The human urinary bladder cancer cell line T24 was obtained from the American Type Culture Collection (Rockville Md.). Cells were grown in McCoy's 5A medium with L-glutamine (GIBCO-BRL, Gaithersburg, Md.), supplemented with 10% heat-inactivated fetal calf serum and 50 U/ml each of penicillin and streptomycin. Cells were seeded on 100 mm plates. When they reached 70% confluency, they were treated with oligonucleotide. Plates were washed with 10 ml prewarmed PBS and 5 ml of OptiMEM (GIBCO) reduced-serum medium containing 2.5 μl DOTMA. Oligonucleotide was then added to the desired concentration. After 4 hours of treatment, the medium was replaced with McCoy's medium. Cells were harvested 48 hours after oligonucleotide treatment and RNA was isolated using a standard CsCl purification method. [Kingston in Current Protocols in Molecular Biology, F. M. Ausubel, R. Brent, R. E. Kingston, D. D. Moore, J. A. Smith, J. G. Seidman and K. Strahl, Eds., John Wiley and Sons, New York.] The human epithelioid carcinoma cell line HeLa 229 was obtained from the American Type Culture Collection (Bethesda, Md.). HeLa cells were maintained as monolayers on 6-well plates in Dulbecco's Modified Eagle's medium (DMEM) supplemented with 10% fetal bovine serum and 100 U/ml penicillin. Treatment with oligonucleotide and isolation of RNA were essentially as described above for T24 cells.
# Northern hybridization: 10 μg of each RNA was electrophoresed on a 1.2% agarose/formaldehyde gel and transferred overnight to GeneBind 45 nylon membrane (Pharmacia LKB, Piscataway, N.J.) using standard methods. [Kingston in Current Protocols in Molecular Biology, F. M. Ausubel, R. Brent, R. E. Kingston, D. D. Moore, J. A. Smith, J. G. Seidman and K. Strahl, Eds., John Wiley and Sons, New York.] RNA was UV-crosslinked to the membrane. Double-stranded ^32P-labeled probes were synthesized using the Prime a Gene labeling kit (Promega, Madison Wis.). The ras probe was a SalI-NheI fragment of a cDNA clone of the activated (mutant) H-ras mRNA having a GGC-to-GTC mutation at codon-12. The control probe was G3PDH. Blots were prehybridized for 15 minutes at 68° C. with the QuickHyb hybridization solution (Stratagene, La Jolla, Calif.). The heat-denatured radioactive probe (2.5×10^6 counts/2 ml hybridization solution) mixed with 100 μl of 10 mg/ml salmon sperm DNA was added and the membrane was hybridized for 1 hour at 68° C. The blots were washed twice for 15 minutes at room temperature in 2×SSC/0.1% SDS and once for 30 minutes at 60° C. with 0.1×SSC/0.1% SDS. Blots were autoradiographed and the intensity of signal was quantitated using an ImageQuant PhosphorImager (Molecular Dynamics, Sunnyvale, Calif.). Northern blots were first hybridized with the ras probe, then stripped by boiling for 15 minutes in 0.1×SSC/0.1% SDS and rehybridized with the control G3PDH probe to check for correct sample loading.
# [2] = test system: ras-luciferase (codon-12 point mutation of activated H-ras); assay: ras-luciferase reporter gene system; type: cell-based, human; conditions: for inhibition of ras-luciferase activity: cells expressing the mutant form of ras-luciferase, dose response, FIGS. 1 and 2; for effect on ras expression: chimeric backbone-modified oligonucleotides, result in words
# [3] = test system: 25mer oligoribonucleotide complement; assay: Melting curves with 25mer oligoribonucleotide complement; type: binding; conditions: 17mer hybridized with 25mer oligoribonucleotide complement
# From the text: Other sugar modifications: The effects of other 2′ sugar modifications besides 2′-O-methyl on antisense activity in chimeric oligonucleotides have been examined. These modifications are listed in Table 4, along with the Tm values obtained when 17mer oligonucleotides having 2′-modified nucleotides flanking a 7-base deoxy gap were hybridized with a 25mer oligoribonucleotide complement as described in Example 25. […] As alkyl length increased, Tm decreased.
# Absorbance vs. temperature curves were measured at 260 nm using a Gilford 260 spectrophotometer interfaced to an IBM PC computer and a Gilford Response II spectrophotometer. The buffer contained 100 mM Na^+, 10 mM phosphate and 0.1 mM EDTA, pH 7. Oligonucleotide concentration was 4 μM each strand determined from the absorbance at 85° C. and extinction coefficients calculated according to Puglisi and Tinoco [Methods in Enzymol., 180, 304 (1989). Tm values, free energies of duplex formation and association constants were obtained from fits of data to a two state model with linear sloping baselines. [Petersheim and Turner, Biochemistry, 22, 256 (1983). Reported parameters are averages of at least three experiments. For some oligonucleotides, free energies of duplex formation were also obtained from plots of Tm^−1 vs log10 (concentration). Borer et al., J. Mol. Biol., 86, 843 (1974).
# [4] = duplex with complementary RNA, first Tm column
substance,measurement,setting,value
"AoAoAoAoCoGsTsCsAsGsCsCsAsTsGoGoToCoCoC (AAAACGTCAGCCATGGTCCC; linkages o5 s9 o5 (s phosphorothioate, o phosphodiester), sugars by position and methylation of C not given here; further chemistry not fully specified) [Oligonucleotide 7273]",effect on PKC-α mRNA levels,PKC-α mRNA,more active than their 2′-β-methyl counterparts
"AsAoAoAoCoGsTsCsAsGsCsCsAsTsGoGoToCoCsC (AAAACGTCAGCCATGGTCCC; linkages s1 o4 s9 o4 s1 (s phosphorothioate, o phosphodiester), sugars by position and methylation of C not given here; further chemistry not fully specified) [Oligonucleotide 7008]",effect on PKC-α mRNA levels,PKC-α mRNA; listed as 7008,reduction of PKC-α mRNA
"AsAoAoAoCoGsTsCsAsGsCsCsAsTsGoGoToCoCsC (AAAACGTCAGCCATGGTCCC; linkages s1 o4 s9 o4 s1 (s phosphorothioate, o phosphodiester), sugars by position and methylation of C not given here; further chemistry not fully specified) [Oligonucleotide 7294]",effect on PKC-α mRNA levels,PKC-α mRNA; listed as 7294,more active than their 2′-β-methyl counterparts
"AsAsAsAsCsGsTsCsAsGsCsCsAsTsGsGsTsCsCsC (AAAACGTCAGCCATGGTCCC; all phosphorothioate, sugars by position and methylation of C not given here; further chemistry not fully specified) [Oligonucleotide 5352]",effect on PKC-α mRNA levels,PKC-α mRNA,most active
"AsAsAsAsCsGsTsCsAsGsCsCsAsTsGsGsTsCsCsC (AAAACGTCAGCCATGGTCCC; listed as DNA, chemistry not fully specified) [Oligonucleotide 3522, reference compound]",effect on PKC-α mRNA levels,PKC-α mRNA,reduction of PKC-α mRNA
"CTC GTA CCT TCC GGT CC: unmodified phosphodiester, SEQ ID NO: 22 (CTCGTACCTTCCGGTCC; unmodified DNA)",Tm,[1]; [4],61.6 °C
"CTTATATTCCGTCATCGCTC (chemistry not given here) [Compound 2502, phosphorothioate oligonucleotide complementary to the ras AUG region, 20 deoxy, reference compound]",inhibition of ras expression / decrease of ras mRNA,ras mRNA,26%
"CTTATATTCCGTCATCGCTC (chemistry not given here) [Oligonucleotide 4998, chimeric phosphorothioate, 7-base deoxy gap flanked by 2′-O-methyl regions, AUG target]",inhibition of ras expression / decrease of ras mRNA,ras mRNA; listed as 4998,84%
"CUC GUA CCU UCC GGU CC: SEQ ID NO: 28; adenosine, thymidine and cytidine nucleotides modified to contain 2′-deoxy-2′-fluoro substituents (CUCGUACCUUCCGGUCC; 2'-fluoro on A, U/T, C, G sugar and linkages not given here, further chemistry not given here)",Tm,[1]; [4],81.6 °C
C^MC^MA^M C^MA^MC^M C^MG^MAd C^MG^MG^M C^MG^MC^M C^MC^M [Oligonucleotide 3975],inhibition of ras-luciferase activity,[2],neither of the oligonucleotides having either the one or the three 2′-deoxy-erythro-pentofuranosyl nucleotide subsequences showed significant activity
C^MC^MA^M C^MA^MC^M C^MGdAd CdG^MG^M C^MG^MC^M C^MC^M [Oligonucleotide 3979],inhibition of ras-luciferase activity,[2],measurable activity for the three nucleotide subsequence oligonucleotide 3979 at the highest concentration dose
C^MC^MA^M C^MA^MC^M CdGdAd CdGdG^M C^MG^MC^M C^MC^M [Oligonucleotide 3980],inhibition of ras-luciferase activity,[2],next greatest inhibition
same,inhibition of ras expression / decrease of ras mRNA,ras mRNA,61%
C^MC^MA^M C^MAdCd CdGdAd CdGdGd CdG^MC^M C^MC^M [Oligonucleotide 3984],inhibition of ras-luciferase activity,[2],greater inhibition of ras-luciferase activity than did oligonucleotide 2570
same,inhibition of ras expression / decrease of ras mRNA,ras mRNA,81%
CsCsAsCoAoCoCoGoAoCoGoGoCoGsCsCsC [ISIS 4241],effect on ras expression,[2],completely inactive
CsCsAsCsAsCsCsGsAoCsGsGsCsGsCsCsC [ISIS 4248],effect on ras expression,[2],just as active as a full P═S molecule
"O-Pentyl: 17-mer CCACACCGACGGCGCCC (SEQ ID NO: 1), 2′-O-pentyl nucleotides flanking a 7-base deoxy gap (sugars from the 5' end [OPent]5 d7 [OPent]5, backbone and methylation of C not given here)",Tm,[3],68.5 °C
"O-Propyl: 17-mer CCACACCGACGGCGCCC (SEQ ID NO: 1), 2′-O-propyl nucleotides flanking a 7-base deoxy gap (sugars from the 5' end [OPr]5 d7 [OPr]5, backbone and methylation of C not given here)",Tm,[3],70.4 °C
TCCGTCATCGCTCCTCAGGG [Oligonucleotide 5122],inhibition of ras expression / decrease of ras mRNA,ras mRNA; listed as 5122,15%
"TsCsTs CsGsCs TsGsGs TsGsAs GsTsTs TsC (TCTCGCTGGTGAGTTTC; all phosphorothioate, sugars by position and methylation of C not given here; further chemistry not fully specified) [Oligonucleotide 7082]",effect on PKC-α mRNA levels,PKC-α mRNA,most active
"TsTsCs TsCsGs CsTsGs GsTsGs AsGsTs TsTsC (TTCTCGCTGGTGAGTTTC; all phosphorothioate, sugars by position and methylation of C not given here; further chemistry not fully specified) [Oligonucleotide 6632]",effect on PKC-α mRNA levels,PKC-α mRNA,most active
"oligonucleotide with the 2′-O-propyl diester flanking regions: SEQ ID NO:1, phosphorothioate backbone in the 7-base deoxy gap only, phosphodiester 2′-O-propyl flanking regions (CCACACCGACGGCGCCC; 2'-O-propyl phosphodiester flanks, 7-deoxy phosphorothioate gap, exact positions not given here)",effect on ras expression,[2],able to inhibit ras expression
ps(CGA CTA TGC AAG TAC),Tm,[1]; change in Tm relative to the unmodified oligonucleotide,−11.2 °C
same,Tm,[1]; [4],33.9 °C
ps(CGA CUA UGC AAG UAC),Tm,[1]; [4],60.9 °C

# From US20080032945A1, “2'-MODIFIED OLIGONUCLEOTIDES” (Isis Pharmaceuticals, Inc., priority 1992, published 2008)
